Key:
[1] = tested on: any of the receptor molecules described in example 1; settings: 1.1 μM receptor, 2.5 μM compound 1, overnight at 4° C., Superose 6 gel filtration, excitation 485 nm, emission 535 nm
Protocol: This example describes the chelation of the compound of example 4 to any of the receptor molecules described in example 1 and purification of the receptor-perylene complexes by gel filtration chromatography.
The receptor was affinity purified, following standard methods, and 1.1 μM of the molecule was combined with 2.5 μM of compound 1, in a total volume of 0.5 ml. The materials were incubated on a rocking platform, overnight, at 4° C. The mixture was then loaded onto a 20 ml column of Superose 6 Prep gel filtration media, and washed with running buffer (20 mM Tris, pH 7.4, 150 mM NaCl, 0.05% maltoside/0.01% CHS), to remove any unbound perylene. A total of 60 separate, 0.5 ml fractions were collected. A portion of each fraction was loaded into 60 wells of a 96 well plate, and fluorescence was measured at an excitation of 485 nm, and emission of 535 nm. Since the fluorescence quantum yield of perylene bound to receptor differs from that of unbound perylene, fluorescence was also measured after dissociating receptor-perylene complexes by adding imidazole to a final concentration of 0.5M to each of the fractions. A portion of each column fraction was loaded onto denaturing polyacrylamide gel, separated by electrophoreses, transferred to PVDF membranes, and receptor protein containing fractions were identified, using anti-MBP antibodies.

[2] = target: T1, serotonin receptor 5HT2C with a C-terminal His tag (Rattus norvegicus, UniProt P08909); assay: immunoprecipitation binding assay (anti-MBP, protein A beads, imidazole elution, fluorescence); settings: receptor 0.2 μM, perylene 0.4 μM, overnight at 4° C.; FIGS. 5-7
T1 construct: made in house; host or cells: bacteria (E. coli is named as the preferred host for the MBP system)
T1 sequence (P08909 with tags, fused parts or gaps): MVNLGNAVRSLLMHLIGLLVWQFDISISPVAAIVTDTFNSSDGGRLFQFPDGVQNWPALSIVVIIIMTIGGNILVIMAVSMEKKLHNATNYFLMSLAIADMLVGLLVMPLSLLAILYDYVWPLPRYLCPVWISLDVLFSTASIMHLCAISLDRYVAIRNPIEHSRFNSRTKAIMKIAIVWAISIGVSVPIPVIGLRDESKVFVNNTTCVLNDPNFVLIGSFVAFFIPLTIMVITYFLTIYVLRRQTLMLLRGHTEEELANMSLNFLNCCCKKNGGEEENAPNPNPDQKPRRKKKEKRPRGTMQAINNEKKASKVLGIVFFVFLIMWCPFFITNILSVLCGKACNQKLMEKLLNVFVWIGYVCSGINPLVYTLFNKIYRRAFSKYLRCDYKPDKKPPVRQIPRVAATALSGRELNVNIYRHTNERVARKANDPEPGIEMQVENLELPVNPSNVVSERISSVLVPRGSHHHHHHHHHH
Protocol: In these experiments, the affinity purified receptor (0.2 μM), and either compound 1, or control glycine-perylene (0.4 μM), were combined, in a total volume of 0.1 ml, and incubated on a rocking platform overnight, at 4° C. Further controls were provided, by taking samples of the two perylene molecules and treating them in the absence of protein.
All washes were retained for fluorescence measurements.
Perylene molecules were eluted from the bead bound proteins using 0.5M imidazole. Fluorescence of all samples and washes was measured, using a spectrofluorometer, excitation at 480 nm, and emission scan at 500-650 nm. Peak fluorescence was detected at 533-535 nm.

CCCCCCC(CCCCCC)N1C(=O)c2ccc3c4ccc5c6c(ccc(c7ccc(c2c37)C1=O)c64)C(=O)N(CCCCC(C(=O)[O-])N(CC(=O)[O-])CC(=O)O)C5=O.[Ni+2] (centres unmarked) [compound 1, N-(1-hexylheptyl)-N′-(nickel (II)-5-(1-carboxyl-1-(N-dicarboxylmethyl)pentyl))perylene-3,4,9,10-tetracarboxylic-diimide]
portion of the total perylene bound to receptor protein [1]: roughly one-third | binding to the receptor (fluorescence following overnight elution with 0.5M imidazole) [2]: bound to the receptor and required elution
